Experimental data from paper PMC5218480 (PLoS ONE, 2017).

Test system: MV-4-11 cells
Assay: Gene expression microarray analysis (Affymetrix PrimeView) and GSEA
Format: cell-based, human
Parameters: RFU PODN (11730768_x_at) / Fold change /veh PODN (11730768_x_at) / RFU LINC00158 (11744669_a_at) / Fold change /veh LINC00158 (11744669_a_at) / RFU DUSP10 (11751237_a_at) / Fold change /veh DUSP10 (11751237_a_at) / RFU ID3 (11757404_x_at) / Fold change /veh ID3 (11757404_x_at) / RFU PLEKHG5 (11737974_s_at) / Fold change /veh PLEKHG5 (11737974_s_at) / RFU LRRC4B (11730491_at) / Fold change /veh LRRC4B (11730491_at) / RFU GIMAP4 (11747438_a_at) / Fold change /veh GIMAP4 (11747438_a_at) / RFU KRT8 (11758183_x_at) / Fold change /veh KRT8 (11758183_x_at) / RFU CNN1 (11734310_a_at) / Fold change /veh CNN1 (11734310_a_at) / RFU VPS37D (11726825_at) / Fold change /veh VPS37D (11726825_at) / RFU C10orf10 (11716522_x_at) / Fold change /veh C10orf10 (11716522_x_at) / RFU KIR2DL2 /// KIR2DL4 /// KIR2DL5A /// KIR2DL5B /// KIR2DS1 /// KIR2DS2 /// KIR2DS3 /// KIR2DS4 /// KIR3DL3 /// KIR3DL3 /// KIR3DS1 (11738374_at) / Fold change /veh KIR2DL2 /// KIR2DL4 /// KIR2DL5A /// KIR2DL5B /// KIR2DS1 /// KIR2DS2 /// KIR2DS3 /// KIR2DS4 /// KIR3DL3 /// KIR3DL3 /// KIR3DS1 (11738374_at) / RFU C1QL1 (11718748_at) / Fold change /veh C1QL1 (11718748_at) / RFU TMPRSS4 (11747572_a_at) / Fold change /veh TMPRSS4 (11747572_a_at) / RFU HAMP (11756126_x_at) / Fold change /veh HAMP (11756126_x_at) / RFU RNFT2 (11725882_a_at) / Fold change /veh RNFT2 (11725882_a_at) / RFU NR4A2 (11747474_a_at) / Fold change /veh NR4A2 (11747474_a_at) / RFU ABCC12 (11746883_a_at) / Fold change /veh ABCC12 (11746883_a_at) / RFU TMEM136 (11760407_x_at) / Fold change /veh TMEM136 (11760407_x_at) / RFU CLDN22 /// WWC2 (11732394_at) / Fold change /veh CLDN22 /// WWC2 (11732394_at) / RFU HLA-DPB1 (11760878_x_at) / Fold change /veh HLA-DPB1 (11760878_x_at) / RFU SPINT1 (11716480_a_at) / Fold change /veh SPINT1 (11716480_a_at) / RFU GAP43 (11754022_s_at) / Fold change /veh GAP43 (11754022_s_at) / RFU A4GNT (11735810_at) / Fold change /veh A4GNT (11735810_at) / RFU PRB3 (11715151_x_at) / Fold change /veh PRB3 (11715151_x_at) / RFU TUBB4B (11761932_at) / Fold change /veh TUBB4B (11761932_at) / RFU CAPN14 (11732068_a_at) / Fold change /veh CAPN14 (11732068_a_at) / RFU TMCC2 (11721928_a_at) / Fold change /veh TMCC2 (11721928_a_at) / RFU IRGQ (11745062_a_at) / Fold change /veh IRGQ (11745062_a_at) / RFU FAM174B (11720279_a_at) / Fold change /veh FAM174B (11720279_a_at) / RFU TMPRSS4 (11748680_a_at) / Fold change /veh TMPRSS4 (11748680_a_at) / RFU FAM212B (11763350_a_at) / Fold change /veh FAM212B (11763350_a_at) / RFU PLEKHG5 (11743358_a_at) / Fold change /veh PLEKHG5 (11743358_a_at) / RFU ZSCAN30 (11745921_a_at) / Fold change /veh ZSCAN30 (11745921_a_at) / RFU CMKLR1 (11741424_a_at) / Fold change /veh CMKLR1 (11741424_a_at) / RFU LOC101060620 /// MAPK8IP1 (11723275_at) / Fold change /veh LOC101060620 /// MAPK8IP1 (11723275_at) / RFU SPTSSB (11747773_x_at) / Fold change /veh SPTSSB (11747773_x_at) / RFU PRSS12 (11739890_at) / Fold change /veh PRSS12 (11739890_at) / RFU BIN1 (11741810_x_at) / Fold change /veh BIN1 (11741810_x_at) / RFU WNT11 (11732464_a_at) / Fold change /veh WNT11 (11732464_a_at) / RFU C10orf10 (11716521_a_at) / Fold change /veh C10orf10 (11716521_a_at) / RFU C5orf56 (11738089_at) / Fold change /veh C5orf56 (11738089_at) / RFU CYB561 (11721691_x_at) / Fold change /veh CYB561 (11721691_x_at) / RFU ANKRD19P (11752326_a_at) / Fold change /veh ANKRD19P (11752326_a_at) / RFU OR2T12 /// OR2T33 /// OR2T8 (11738714_s_at) / Fold change /veh OR2T12 /// OR2T33 /// OR2T8 (11738714_s_at) / RFU VCAN (11748164_a_at) / Fold change /veh VCAN (11748164_a_at) / RFU JSRP1 (11732532_at) / Fold change /veh JSRP1 (11732532_at) / RFU KRTAP10-11 (11738290_x_at) / Fold change /veh KRTAP10-11 (11738290_x_at) / RFU MYO3A (11730013_a_at) / Fold change /veh MYO3A (11730013_a_at) / RFU EBF3 (11725865_a_at) / Fold change /veh EBF3 (11725865_a_at) / RFU CAMK2N1 (11719241_x_at) / Fold change /veh CAMK2N1 (11719241_x_at) / RFU C5orf56 (11738088_a_at) / Fold change /veh C5orf56 (11738088_a_at) / RFU OLFML3 (11715873_a_at) / Fold change /veh OLFML3 (11715873_a_at) / RFU LOC100653217 /// NTM (11731650_a_at) / Fold change /veh LOC100653217 /// NTM (11731650_a_at) / RFU MAPK11 (11762145_a_at) / Fold change /veh MAPK11 (11762145_a_at) / RFU FIZ1 (11724087_x_at) / Fold change /veh FIZ1 (11724087_x_at) / RFU OASL (11726364_x_at) / Fold change /veh OASL (11726364_x_at) / RFU SOX15 (11748057_x_at) / Fold change /veh SOX15 (11748057_x_at) / RFU CD79A (11719716_a_at) / Fold change /veh CD79A (11719716_a_at) / RFU HIST1H1D (11736915_at) / Fold change /veh HIST1H1D (11736915_at) / RFU CASKIN2 (11723855_a_at) / Fold change /veh CASKIN2 (11723855_a_at) / RFU LOC730098 (11760151_x_at) / Fold change /veh LOC730098 (11760151_x_at) / RFU OR4N2 (11742367_at) / Fold change /veh OR4N2 (11742367_at) / RFU PRRT2 (11749266_a_at) / Fold change /veh PRRT2 (11749266_a_at) / RFU SNX32 (11753110_a_at) / Fold change /veh SNX32 (11753110_a_at) / RFU CDHR5 (11726645_a_at) / Fold change /veh CDHR5 (11726645_a_at) / RFU RCAN1 (11760418_a_at) / Fold change /veh RCAN1 (11760418_a_at) / RFU FAM167A (11723789_a_at) / Fold change /veh FAM167A (11723789_a_at) / RFU FAM26E (11764081_at) / Fold change /veh FAM26E (11764081_at) / RFU ISYNA1 (11749810_s_at) / Fold change /veh ISYNA1 (11749810_s_at) / RFU ACY1 (11761880_at) / Fold change /veh ACY1 (11761880_at) / RFU 11764098_at / Fold change /veh 11764098_at / RFU SAMD14 (11745864_x_at) / Fold change /veh SAMD14 (11745864_x_at) / RFU NPB (11741838_a_at) / Fold change /veh NPB (11741838_a_at) / RFU TMPRSS6 (11731388_a_at) / Fold change /veh TMPRSS6 (11731388_a_at) / RFU KRTAP10-2 (11738614_at) / Fold change /veh KRTAP10-2 (11738614_at) / RFU ARHGAP8 /// PRR5-ARHGAP8 (11727945_x_at) / Fold change /veh ARHGAP8 /// PRR5-ARHGAP8 (11727945_x_at) / RFU KRTAP5-7 /// NADSYN1 (11734609_at) / Fold change /veh KRTAP5-7 /// NADSYN1 (11734609_at) / RFU RASL12 (11751679_a_at) / Fold change /veh RASL12 (11751679_a_at) / RFU CDKN2B (11736163_a_at) / Fold change /veh CDKN2B (11736163_a_at) / RFU PRF1 (11729649_at) / Fold change /veh PRF1 (11729649_at) / RFU, ZNF638 /// ZNF638-IT1 / Fold change vs veh, ZNF638 /// ZNF638-IT1 / RFU, PANK3 / Fold change vs veh, PANK3 / RFU, SH3YL1 / Fold change vs veh, SH3YL1 / RFU, ZEB2 / Fold change vs veh, ZEB2 / RFU, NRIP1 / Fold change vs veh, NRIP1 / RFU, PTTG1IP / Fold change vs veh, PTTG1IP / RFU, CAPN2 / Fold change vs veh, CAPN2 / RFU, MED14 / Fold change vs veh, MED14 / RFU, SNORA58 / Fold change vs veh, SNORA58 / RFU, C1orf63 / Fold change vs veh, C1orf63 / RFU, LRRFIP1 / Fold change vs veh, LRRFIP1 / RFU, NDUFAF7 / Fold change vs veh, NDUFAF7 / RFU, SLC12A2 / Fold change vs veh, SLC12A2 / RFU, IBTK / Fold change vs veh, IBTK / RFU, ESF1 / Fold change vs veh, ESF1 / Fold change vs veh, TMEM50B / RFU, TAOK1 / Fold change vs veh, TAOK1 / RFU, ACBD3 / Fold change vs veh, ACBD3 / RFU, TMA16 / Fold change vs veh, TMA16 / RFU, RWDD3 / Fold change vs veh, RWDD3 / RFU, BCAT1 / Fold change vs veh, BCAT1 / RFU, EDEM3 / Fold change vs veh, EDEM3 / RFU, TMEM33 / Fold change vs veh, TMEM33 / RFU, WDR75 / Fold change vs veh, WDR75 / RFU, AHCTF1 / Fold change vs veh, AHCTF1 / RFU, TFRC / Fold change vs veh, TFRC / RFU, ZDHHC17 / Fold change vs veh, ZDHHC17 / RFU, NOM1 / Fold change vs veh, NOM1 / RFU, ARL8B / Fold change vs veh, ARL8B / RFU, ZBTB11 / Fold change vs veh, ZBTB11 / RFU, TAMM41 / Fold change vs veh, TAMM41 / RFU, KIAA1704 /// LOC100996395 / Fold change vs veh, KIAA1704 /// LOC100996395 / RFU, ING1 / Fold change vs veh, ING1 / RFU, TRMT61B / Fold change vs veh, TRMT61B / RFU, FUBP3 / Fold change vs veh, FUBP3 / RFU, TP53 / Fold change vs veh, TP53 / RFU, TNKS2 / Fold change vs veh, TNKS2 / RFU, ZFP14 / Fold change vs veh, ZFP14 / RFU, ACTR2 / Fold change vs veh, ACTR2 / RFU, PPP3R1 / Fold change vs veh, PPP3R1 / RFU, PIK3R1 / Fold change vs veh, PIK3R1 / RFU, HNRNPA1 / Fold change vs veh, HNRNPA1 / RFU, RNF170 / Fold change vs veh, RNF170 / RFU, ZNF28 / Fold change vs veh, ZNF28 / RFU, RNGTT / Fold change vs veh, RNGTT / RFU, OGT / Fold change vs veh, OGT / RFU, BRD1 / Fold change vs veh, BRD1 / RFU, MARS / Fold change vs veh, MARS / RFU, ZNF655 / Fold change vs veh, ZNF655 / RFU, FAHD1 / Fold change vs veh, FAHD1 / RFU, BDP1 / Fold change vs veh, BDP1 / RFU, LRRCC1 / Fold change vs veh, LRRCC1 / RFU, ARID1A / Fold change vs veh, ARID1A / RFU, ZNF146 / Fold change vs veh, ZNF146 / RFU, ZNF330 / Fold change vs veh, ZNF330 / RFU, GPN3 / Fold change vs veh, GPN3 / RFU, C9orf123 / Fold change vs veh, C9orf123 / RFU, N4BP2L2 / Fold change vs veh, N4BP2L2 / RFU, ARFIP1 / Fold change vs veh, ARFIP1 / RFU, FAM179B / Fold change vs veh, FAM179B / RFU, BCL10 / Fold change vs veh, BCL10 / RFU, UHRF1BP1L / Fold change vs veh, UHRF1BP1L / RFU, BET1 / Fold change vs veh, BET1 / RFU, CNOT2 / Fold change vs veh, CNOT2 / RFU, ZNF268 / Fold change vs veh, ZNF268 / Fold change vs veh, ZNF507 / RFU, DGCR2 / Fold change vs veh, DGCR2 / RFU, WDSUB1 / Fold change vs veh, WDSUB1 / Fold change vs veh, HSP90B1 /// MIR3652 / RFU, ADSS / Fold change vs veh, ADSS / RFU, GK / Fold change vs veh, GK / RFU, ZNF148 / Fold change vs veh, ZNF148 / RFU, TAF9 / Fold change vs veh, TAF9 / RFU, SLC1A5 / Fold change vs veh, SLC1A5 / RFU, SLMO2 / Fold change vs veh, SLMO2 / RFU, ABCC4 / Fold change vs veh, ABCC4 / RFU, LOC101060439 /// RAP1B / Fold change vs veh, LOC101060439 /// RAP1B / RFU, RFX7 / Fold change vs veh, RFX7 / RFU, GTPBP10 / Fold change vs veh, GTPBP10 / RFU, CNEP1R1 / Fold change vs veh, CNEP1R1 / RFU, BIVM-ERCC5 /// ERCC5 / Fold change vs veh, BIVM-ERCC5 /// ERCC5 / RFU, ILF3 / Fold change vs veh, ILF3 / RFU 11762660_at / Fold change /veh 11762660_at / RFU VCAN (11757783_s_at) / Fold change /veh VCAN (11757783_s_at) / RFU DDX43 (11728927_at) / Fold change /veh DDX43 (11728927_at) / RFU KRT8 (11758188_x_at) / Fold change /veh KRT8 (11758188_x_at) / RFU NKD1 (11759106_at) / Fold change /veh NKD1 (11759106_at) / RFU SRD5A1 (11742802_a_at) / Fold change /veh SRD5A1 (11742802_a_at) / RFU TPSAB1 /// TPSB2 (11721975_s_at) / Fold change /veh TPSAB1 /// TPSB2 (11721975_s_at) / RFU GSTM3 (11746129_a_at) / Fold change /veh GSTM3 (11746129_a_at) / RFU IL23R (11737362_x_at) / Fold change /veh IL23R (11737362_x_at) / RFU TMEM51 (11727254_a_at) / Fold change /veh TMEM51 (11727254_a_at) / RFU PIWIL2 (11732686_x_at) / Fold change /veh PIWIL2 (11732686_x_at) / RFU ORM1 (11744905_x_at) / Fold change /veh ORM1 (11744905_x_at) / RFU CCDC152 (11743942_at) / Fold change /veh CCDC152 (11743942_at) / RFU ECM1 (11717891_a_at) / Fold change /veh ECM1 (11717891_a_at) / RFU IL23R (11748794_a_at) / Fold change /veh IL23R (11748794_a_at) / RFU TNFAIP8L3 (11732012_x_at) / Fold change /veh TNFAIP8L3 (11732012_x_at) / RFU MBOAT4 (11741988_at) / Fold change /veh MBOAT4 (11741988_at) / RFU 11764193_at / Fold change /veh 11764193_at / RFU TMEM53 (11763286_at) / Fold change /veh TMEM53 (11763286_at) / RFU MAGEB2 (11727129_at) / Fold change /veh MAGEB2 (11727129_at) / RFU TMEM200A (11744735_a_at) / Fold change /veh TMEM200A (11744735_a_at) / RFU CCDC152 (11751479_a_at) / Fold change /veh CCDC152 (11751479_a_at) / RFU FAM211A (11726209_a_at) / Fold change /veh FAM211A (11726209_a_at) / RFU RGS16 (11746705_a_at) / Fold change /veh RGS16 (11746705_a_at) / RFU VCAN (11755009_s_at) / Fold change /veh VCAN (11755009_s_at) / RFU RHOB (11743442_s_at) / Fold change /veh RHOB (11743442_s_at) / RFU RGS16 (11720943_a_at) / Fold change /veh RGS16 (11720943_a_at) / RFU RGS16 (11720944_at) / Fold change /veh RGS16 (11720944_at) / RFU, VPS4B / Fold change vs veh, VPS4B / RFU, CREB1 / Fold change vs veh, CREB1 / RFU, DNAJC13 / Fold change vs veh, DNAJC13 / RFU, GNAQ / Fold change vs veh, GNAQ / RFU, CDK5R1 / Fold change vs veh, CDK5R1 / RFU, ZRANB3 / Fold change vs veh, ZRANB3 / RFU, CUL4A / Fold change vs veh, CUL4A / RFU, CCNY / Fold change vs veh, CCNY / RFU, UFL1 / Fold change vs veh, UFL1 / RFU, COG3 / Fold change vs veh, COG3 / RFU, DIAPH2 / Fold change vs veh, DIAPH2 / RFU, SKA2 / Fold change vs veh, SKA2 / RFU, AFF3 / Fold change vs veh, AFF3 / RFU, LMF1 / Fold change vs veh, LMF1 / RFU, IPO11 / Fold change vs veh, IPO11 / RFU, DFFB / Fold change vs veh, DFFB / RFU, FOXP1 / Fold change vs veh, FOXP1 / RFU, CARD8 / Fold change vs veh, CARD8 / RFU, STRN3 / Fold change vs veh, STRN3 / RFU, ADK / Fold change vs veh, ADK / RFU, RASSF2 / Fold change vs veh, RASSF2 / RFU, WIPF1 / Fold change vs veh, WIPF1 / RFU, LARP1B / Fold change vs veh, LARP1B / RFU, RASA1 / Fold change vs veh, RASA1 / RFU, RB1 / Fold change vs veh, RB1 / RFU, PPFIA1 / Fold change vs veh, PPFIA1 / RFU, MAT2A / Fold change vs veh, MAT2A / RFU, CCT5 / Fold change vs veh, CCT5 / RFU, WDR92 / Fold change vs veh, WDR92 / RFU, CUX1 / Fold change vs veh, CUX1 / RFU, TTC7A / Fold change vs veh, TTC7A / RFU, TMEM135 / Fold change vs veh, TMEM135 / RFU, DEPTOR / Fold change vs veh, DEPTOR / RFU, CPM / Fold change vs veh, CPM / RFU, DNAJB6 / Fold change vs veh, DNAJB6 / RFU, CACNA2D3 / Fold change vs veh, CACNA2D3 / RFU, DTX4 / Fold change vs veh, DTX4 / RFU, TFCP2 / Fold change vs veh, TFCP2 / RFU, GMCL1 /// GMCL1P1 / Fold change vs veh, GMCL1 /// GMCL1P1 / RFU, AEBP2 / Fold change vs veh, AEBP2 / RFU, SNHG1 /// SNORD22 /// SNORD25 /// SNORD26 /// SNORD27 /// SNORD28 /// SNORD29 /// SNORD31 / Fold change vs veh, SNHG1 /// SNORD22 /// SNORD25 /// SNORD26 /// SNORD27 /// SNORD28 /// SNORD29 /// SNORD31 / Fold change (Aza/veh), C12orf56 (ProbeSet 11735607_a_at) / Fold change (ACY-1035/veh), C12orf56 (ProbeSet 11735607_a_at) / Fold change (Aza/veh), FGFR1OP (ProbeSet 11751329_s_at) / Fold change (ACY-1035/veh), FGFR1OP (ProbeSet 11751329_s_at) / Fold change (Aza/veh), VPS36 (ProbeSet 11739960_a_at) / Fold change (ACY-1035/veh), VPS36 (ProbeSet 11739960_a_at) / RFU SYPL1 (11715823_x_at) / Fold change /veh SYPL1 (11715823_x_at) / RFU IGFBP7 (11715501_s_at) / Fold change /veh IGFBP7 (11715501_s_at) / RFU REEP3 (11722064_at) / Fold change /veh REEP3 (11722064_at) / RFU IGLL1 (11728026_x_at) / Fold change /veh IGLL1 (11728026_x_at): dose or concentration left out as unconfirmed
Conditions: MV-4-11 cells, 48 hours

Nc1ccc(-c2cccs2)cc1NC(=O)c1ccc2c(c1)cc(C1CC1)n2CCN1CCOCC1 [ACY-1035]
RFU CAPN14 (11732068_a_at): 10.99 RFU
